Laboratory results taken from patent US20140242093A1, “METHODS AND COMPOSITIONS FOR MODULATING THE INNATE IMMUNE RESPONSE AND/OR MYOGENESIS IN A MAMMALIAN SUBJECT” (FRED HUTCHINSON CANCER RESEARCH CENTER, priority 2011, published 2014).

Tested on: control human primary myoblasts
Test: Expression microarray of primary myoblasts transduced with lentivirus carrying DUX4-fl, DUX4-s or GFP
Experimental: Primary human myoblasts were collected and cultured as previously described (Snider et al., 2010). Primary myoblasts were maintained at or below 70% confluency for proliferation. For differentiation, cells were allowed to reach 95-100% confluency in growth medium. Once confluency was reached, the cells were changed to differentiation medium (F10 media supplemented with 1% horse serum, 10 μg/mL insulin, and 10 μg/mL transferrin, penicillin/streptomycin) and maintained for 4 days. Human RD cells were grown in DMEM in 10% bovine calf serum (Hyclone) and penicillin/streptomycin. The primary myoblasts were transduced with lentivirus carrying DUX-fl, DUX4- or GFP (MOI=15).
Expression microarrays were performed on the transduced cells at 24 hours after transduction as follows. […] Samples were analyzed by Illumina Human Whole Genome microarrays. Probe intensities were corrected, normalized, and summarized by the Lumi package of Bioconductor (Du et al., 2008). Differentially expressed genes were identified by the LIMMA package of Bioconductor (Wettenhall and Smyth, 2004). Gene set enrichment analysis (GSEA) was performed using the Bioconductor GOstats package (Falcon and Gentleman, 2007).

**Q.** What does the source list for “DUX4-fl: full-length DUX4 protein (SEQ ID NO:110), expressed from lentiviral or pCS2 vectors or in vitro translated”?
**A.** CHI3L2 expression fc (Refseq NM_004000.2, cultured human skeletal muscle): −2.705; IRF7 expression fc (Refseq NM_004029.2, cultured human skeletal muscle): −1.959; CRY1 expression fc (Refseq NM_004075.2): 2.342; PSPN expression fc (Refseq NM_004158.2): 2.203; BEST1 fc (Refseq NM_004183.2): −1.101; UBE2L6 expression fc (Refseq NM_004223.3, cultured human skeletal muscle): −3.085; fc of STK17B (expression array) (Refseq NM_004226.2): −0.05995; fc of SLC9A3R1 (expression array) (Refseq NM_004252.2): −1.036; BST2 expression fc (Refseq NM_004335.2, cultured human skeletal muscle): −4.248; CREB1 fc (Refseq NM_004379.2): −1.133; fc of HOXB7 (expression array) (Refseq NM_004502.3): −1.037; SP110 expression fc (Refseq NM_004510.2, cultured human skeletal muscle): −2.941; PSPH fc (Refseq NM_004577.3): −1.164; XPC expression fc (Refseq NM_004628.3, cultured human skeletal muscle): −2.458; PABPN1 expression fc (Refseq NM_004643.1): 2.567; MAP3K6 fc (Refseq NM_004672.3): −1.074; fc of SLC16A5 (expression array) (Refseq NM_004695.2): −1.025; fc of SFRS2IP (expression array) (Refseq NM_004719.2): −0.0565; fc of ARHGEF2 (expression array) (Refseq NM_004723.2): −1.057; TIAF1 fc (Refseq NM_004740.3): −1.123; NOLC1 expression fc (Refseq NM_004741.1): 2.439; SLIT2 expression fc (Refseq NM_004787.1): 2.369; LPXN fc (Refseq NM_004811.1): −1.124; PEX16 fc (Refseq NM_004813.1): −1.101; C9orf61 expression fc (Refseq NM_004816.2): 2.614; MED26 expression fc (Refseq NM_004831.3): 2.1; fc of GSTO1 (expression array) (Refseq NM_004832.1): −1.03; fc of LITAF (expression array) (Refseq NM_004862.2): −0.5892; fc of SCAMPI (expression array) (Refseq NM_004866.4): −0.4749; fc of APBA3 (expression array) (Refseq NM_004886.3): −1.032; SERPINI1 expression fc (Refseq NM_005025.3): 1.809; TRIM25 expression fc (Refseq NM_005082.4, cultured human skeletal muscle): −2.513; SFRS17A expression fc (Refseq NM_005088.2): 2.456; ISG15 expression fc (Refseq NM_005101.1, cultured human skeletal muscle): −4.311; MVP fc (Refseq NM_005115.3): −1.178; MED13 expression fc (Refseq NM_005121.2): 1.817; fc of REC8 (expression array) (Refseq NM_005132.2): −1.007; ATP6V0A1 fc (Refseq NM_005177.3): −1.152; CEBPB expression fc (Refseq NM_005194.2, cultured human skeletal muscle): −2.441; ETS1 fc (Refseq NM_005238.2): −1.067; FAT1 fc (Refseq NM_005245.3): −1.138; GPR37 expression fc (Refseq NM_005302.2): 2.121; H1F0 expression fc (Refseq NM_005318.2, cultured human skeletal muscle): −2.434; HSPA1A expression fc (Refseq NM_005345.4): 3.54; HSPA1B expression fc (Refseq NM_005346.3): 3.402; NEFM expression fc (Refseq NM_005382.1): 2.925; SHMT2 fc (Refseq NM_005412.4): −1.089; STAT2 expression fc (Refseq NM_005419.2, cultured human skeletal muscle): −2.69; EOMES expression fc (Refseq NM_005442.2): 2.897; TOM1 fc (Refseq NM_005488.1): −1.129; HLA-B expression fc (Refseq NM_005514.5, cultured human skeletal muscle): −2.752; HLA-E fc (Refseq NM_005516.4): −1.11; IFI16 expression fc (Refseq NM_005531.1, cultured human skeletal muscle): −2.008; IFI27 expression fc (Refseq NM_005532.3, cultured human skeletal muscle): −6.527; IFI35 expression fc (Refseq NM_005533.2, cultured human skeletal muscle): −3.847; IRS1 fc (Refseq NM_005544.1): −1.157; KLC1 expression fc (Refseq NM_005552.4): 1.967; RGS4 expression fc (Refseq NM_005613.3): 1.951; SGK expression fc (Refseq NM_005627.2): 2.04; TAF4B expression fc (Refseq NM_005640.1): 1.87; fc of TERF2 (expression array) (Refseq NM_005652.2): −1.02; fc of REEP5 (expression array) (Refseq NM_005669.4): −0.3556; fc of HIPK3 (expression array) (Refseq NM_005734.3): −0.2982; ARIH1 expression fc (Refseq NM_005744.2): 2.243; fc of NAMPT (expression array) (Refseq NM_005746.2): −0.5767; LHFPL2 fc (Refseq NM_005779.1): −1.13; STX6 expression fc (Refseq NM_005819.4): 2.053; fc of RCAN2 (expression array) (Refseq NM_005822.2): −0.5968; MFGE8 fc (Refseq NM_005928.1): −1.15; MT1X expression fc (Refseq NM_005952.2, cultured human skeletal muscle): −2.444; SNAI1 expression fc (Refseq NM_005985.2): 1.943; RBM12 expression fc (Refseq NM_006047.4): 2.013; TRIM22 expression fc (Refseq NM_006074.3, cultured human skeletal muscle): −2.581; CBARA1 expression fc (Refseq NM_006077.2): 2.064; TUBB2C expression fc (Refseq NM_006088.5): 1.948; LASP1 fc (Refseq NM_006148.1): −1.152; NFE2L2 fc (Refseq NM_006164.2): −1.093; OAS3 expression fc (Refseq NM_006187.2, cultured human skeletal muscle): −4.029; fc of PDGFRL (expression array) (Refseq NM_006207.1): −0.6227; PSME1 fc (Refseq NM_006263.2): −1.138; STK3 expression fc (Refseq NM_006281.2): 2.186; THY1 fc (Refseq NM_006288.2): −1.067; TNFAIP3 expression fc (Refseq NM_006290.2, cultured human skeletal muscle): −2.897; HSPB3 expression fc (Refseq NM_006308.1): 1.914; NXF1 expression fc (Refseq NM_006362.4): 4.233; fc of ATG7 (expression array) (Refseq NM_006395.1): −1.016; SLC34A2 expression fc (Refseq NM_006424.2): 5.514; TXNRD2 fc (Refseq NM_006440.3): −1.104; fc of MXD4 (expression array) (Refseq NM_006454.2): −1.035; ARID3B expression fc (Refseq NM_006465.2): 2.024; TXNIP expression fc (Refseq NM_006472.2, cultured human skeletal muscle): −1.9; ZNF217 expression fc (Refseq NM_006526.2): 4.114; FAM189B fc (Refseq NM_006589.2): −1.075; fc of TCFL5 (expression array) (Refseq NM_006602.2): −1.053; RFPL2 expression fc (Refseq NM_006605.1): 7.293; fc of NES (expression array) (Refseq NM_006617.1): −0.08904; HSPH1 expression fc (Refseq NM_006644.2): 2.217; HCP5 fc (Refseq NM_006674.2): −1.099; UGP2 fc (Refseq NM_006759.3): −1.169; IFI44L expression fc (Refseq NM_006820.1, cultured human skeletal muscle): −5.117; fc of CKAP4 (expression array) (Refseq NM_006825.2): −1.006; fc of ILVBL (expression array) (Refseq NM_006844.3): −1.015; KDELR3 fc (Refseq NM_006855.2): −1.163; fc of GMPR (expression array) (Refseq NM_006877.2): −0.4519; SLC2A3 expression fc (Refseq NM_006931.1): 3.385; fc of HSPA13 (expression array) (Refseq NM_006948.4): −0.1756; ZBTB25 fc (Refseq NM_006977.2): −1.113; ADAMTS1 fc (Refseq NM_006988.3): −1.164; C1Oorf10 expression fc (Refseq NM_007021.2, cultured human skeletal muscle): −2.641; fc of DNAJB4 (expression array) (Refseq NM_007034.3): −1.024; KATNA1 expression fc (Refseq NM_007044.2): 1.819; UBL3 expression fc (Refseq NM_007106.2): 2.164; TESK2 expression fc (Refseq NM_007170.2): 1.787; NUP50 expression fc (Refseq NM_007172.3): 2.324; fc of PACSIN2 (expression array) (Refseq NM_007229.1): −1.038; DUSP12 expression fc (Refseq NM_007240.1): 2.249; fc of MGLL (expression array) (Refseq NM_007283.5): −1.033; STAT1 expression fc (Refseq NM_007315.2, cultured human skeletal muscle): −2.915; fc of LGALS9 (expression array) (Refseq NM_009587.2): −0.8549; FRAT2 expression fc (Refseq NM_012083.2): 1.918; fc of CDC42EP4 (expression array) (Refseq NM_012121.4): −1.034; CHORDC1 expression fc (Refseq NM_012124.1): 1.805; CLDN14 expression fc (Refseq NM_012130.2): 3.148; TFIP11 expression fc (Refseq NM_012143.2): 3.191; SIRT1 expression fc (Refseq NM_012238.3): 1.844; KCNH4 expression fc (Refseq NM_012285.1): 2.749; BAMBI expression fc (Refseq NM_012342.2): 2.783; fc of TINF2 (expression array) (Refseq NM_012461.1): −1.025; CD24 expression fc (Refseq NM_013230.2): 2.624; ZNF214 expression fc (Refseq NM_013249.1): 2.219; TBK1 fc (Refseq NM_013254.2): −1.08; MYLIP expression fc (Refseq NM_013262.3): 1.824; TRA2A expression fc (Refseq NM_013293.3): 1.978; fc of EEF2K (expression array) (Refseq NM_013302.3): −1.058; SERTAD1 expression fc (Refseq NM_013376.3): 2.002; fc of SLC25A24 (expression array) (Refseq NM_013386.3): −0.2843; fc of CLIC4 (expression array) (Refseq NM_013943.1): −0.9976; BZW2 expression fc (Refseq NM_014038.1): 2.677; LRP10 fc (Refseq NM_014045.3): −1.102; fc of FAM156A (expression array) (Refseq NM_014138.3): −1.027; SMARCAL1 fc (Refseq NM_014140.2): −1.157; CCDC59 expression fc (Refseq NM_014167.2): 1.892; fc of TDRD7 (expression array) (Refseq NM_014290.1): −1.062; DDX58 expression fc (Refseq NM_014314.3, cultured human skeletal muscle): −2.466; PDSS1 expression fc (Refseq NM_014317.3): 2.003; AMACR expression fc (Refseq NM_014324.4): 2.743; PPP1R15A expression fc (Refseq NM_014330.2): 2.08; TSPAN13 expression fc (Refseq NM_014399.3): 2.117; APOBEC3C fc (Refseq NM_014508.2): −1.108; EVC expression fc (Refseq NM_014556.2, cultured human skeletal muscle): −1.954; SCHIP1 expression fc (Refseq NM_014575.2, cultured human skeletal muscle): −2.093; SLC40A1 expression fc (Refseq NM_014585.3): 1.859; CDR2L fc (Refseq NM_014603.1): −1.119; TAX1BP3 fc (Refseq NM_014604.2): −1.072; CTR9 expression fc (Refseq NM_014633.3): 2.402; SLC25A44 expression fc (Refseq NM_014655.1): 2.017; MTSS1 fc (Refseq NM_014751.4): −1.159; LBA1 fc (Refseq NM_014831.1): −1.121; KIAA0020 expression fc (Refseq NM_014878.4): 2.017; ABLIM3 fc (Refseq NM_014945.2): −1.174; WDR47 expression fc (Refseq NM_014969.4): 2.277; ARC expression fc (Refseq NM_015193.3): 1.802
